S=c1[nH]c2ccccc2s1
Details	solubility (mole fraction)
in 1,4-dioxane, 285.65 K	0.0438
in 1,4-dioxane, 288.15 K	0.0466
in 1,4-dioxane, 290.65 K	0.0502
in 1,4-dioxane, 293.15 K	0.0536
in 1,4-dioxane, 295.65 K	0.0574
in 1,4-dioxane, 298.15 K	0.0613
in 1,4-dioxane, 300.65 K	0.0652
in 1,4-dioxane, 303.15 K	0.0698
in 1,4-dioxane, 305.65 K	0.0742
in 1,4-dioxane, 308.15 K	0.079
in 1,4-dioxane, 310.65 K	0.0835
in 1,4-dioxane, 313.15 K	0.0893
in 1,4-dioxane, 315.65 K	0.0943
in 1,4-dioxane, 318.15 K	0.101
in 2-butanone, 273.15 K	0.0695
in 2-butanone, 275.65 K	0.0722
in 2-butanone, 278.15 K	0.0752
in 2-butanone, 280.65 K	0.0778
in 2-butanone, 283.15 K	0.0807
in 2-butanone, 285.65 K	0.0837
in 2-butanone, 288.15 K	0.0867
in 2-butanone, 290.65 K	0.0902
in 2-butanone, 293.15 K	0.093
in 2-butanone, 295.65 K	0.0967
in 2-butanone, 298.15 K	0.0995
in 2-butanone, 300.65 K	0.103
in 2-butanone, 303.15 K	0.106
in 2-butanone, 305.65 K	0.11
in 2-butanone, 308.15 K	0.113
in 2-butanone, 310.65 K	0.116
in 2-butanone, 313.15 K	0.12
in 2-butanone, 315.65 K	0.124
in 2-butanone, 318.15 K	0.128
in acetonitrile, 273.15 K	0.00426
in acetonitrile, 275.65 K	0.00467
in acetonitrile, 278.15 K	0.00507
in acetonitrile, 280.65 K	0.00553
in acetonitrile, 283.15 K	0.00597
in acetonitrile, 285.65 K	0.00647
in acetonitrile, 288.15 K	0.00705
in acetonitrile, 290.65 K	0.00762
in acetonitrile, 293.15 K	0.00819
in acetonitrile, 295.65 K	0.00885
in acetonitrile, 298.15 K	0.00956
in acetonitrile, 300.65 K	0.0102
in acetonitrile, 303.15 K	0.011
in acetonitrile, 305.65 K	0.0118
in acetonitrile, 308.15 K	0.0127
in acetonitrile, 310.65 K	0.0137
in acetonitrile, 313.15 K	0.0146
in acetonitrile, 315.65 K	0.0155
in acetonitrile, 318.15 K	0.0167
in chloroform, 273.15 K	0.00683
in chloroform, 275.65 K	0.0072
in chloroform, 278.15 K	0.00766
in chloroform, 280.65 K	0.00816
in chloroform, 283.15 K	0.00865
in chloroform, 285.65 K	0.00922
in chloroform, 288.15 K	0.00972
in chloroform, 290.65 K	0.0104
in chloroform, 293.15 K	0.0109
in chloroform, 295.65 K	0.0115
in chloroform, 298.15 K	0.0121
in chloroform, 300.65 K	0.0128
in chloroform, 303.15 K	0.0135
in chloroform, 305.65 K	0.0142
in chloroform, 308.15 K	0.0149
in chloroform, 310.65 K	0.0156
in chloroform, 313.15 K	0.0165
in chloroform, 315.65 K	0.0172
in chloroform, 318.15 K	0.0182
in ethyl acetate, 273.15 K	0.0274
in ethyl acetate, 275.65 K	0.0286
in ethyl acetate, 278.15 K	0.0297
in ethyl acetate, 280.65 K	0.0309
in ethyl acetate, 283.15 K	0.0323
in ethyl acetate, 285.65 K	0.0336
in ethyl acetate, 288.15 K	0.0348
in ethyl acetate, 290.65 K	0.0361
in ethyl acetate, 293.15 K	0.0374
in ethyl acetate, 295.65 K	0.0389
in ethyl acetate, 298.15 K	0.0403
in ethyl acetate, 300.65 K	0.0419
in ethyl acetate, 303.15 K	0.0434
in ethyl acetate, 305.65 K	0.0448
in ethyl acetate, 308.15 K	0.0465
in ethyl acetate, 310.65 K	0.0482
in ethyl acetate, 313.15 K	0.0499
in ethyl acetate, 315.65 K	0.0513
in ethyl acetate, 318.15 K	0.0532
in isobutanol, 273.15 K	0.0101
in isobutanol, 275.65 K	0.011
in isobutanol, 278.15 K	0.012
in isobutanol, 280.65 K	0.0132
in isobutanol, 283.15 K	0.0143
in isobutanol, 285.65 K	0.0155
in isobutanol, 288.15 K	0.0169
in isobutanol, 290.65 K	0.0184
in isobutanol, 293.15 K	0.0199
in isobutanol, 295.65 K	0.0215
in isobutanol, 298.15 K	0.0231
in isobutanol, 300.65 K	0.0252
in isobutanol, 303.15 K	0.027
in isobutanol, 305.65 K	0.0292
in isobutanol, 308.15 K	0.0311
in isobutanol, 310.65 K	0.0336
in isobutanol, 313.15 K	0.0361
in isobutanol, 315.65 K	0.0386
in isobutanol, 318.15 K	0.0411
in isopropanol, 273.15 K	0.00949
in isopropanol, 275.65 K	0.0103
in isopropanol, 278.15 K	0.0111
in isopropanol, 280.65 K	0.0122
in isopropanol, 283.15 K	0.0134
in isopropanol, 285.65 K	0.0148
in isopropanol, 288.15 K	0.0161
in isopropanol, 290.65 K	0.0175
in isopropanol, 293.15 K	0.0192
in isopropanol, 295.65 K	0.0208
in isopropanol, 298.15 K	0.0224
in isopropanol, 300.65 K	0.0242
in isopropanol, 303.15 K	0.0261
in isopropanol, 305.65 K	0.0282
in isopropanol, 308.15 K	0.0305
in isopropanol, 310.65 K	0.0328
in isopropanol, 313.15 K	0.0352
in isopropanol, 315.65 K	0.0378
in isopropanol, 318.15 K	0.0408
in methanol, 273.15 K	0.00733
in methanol, 275.65 K	0.00795
in methanol, 278.15 K	0.00868
in methanol, 280.65 K	0.00946
in methanol, 283.15 K	0.0103
in methanol, 285.65 K	0.0111
in methanol, 288.15 K	0.0121
in methanol, 290.65 K	0.0131
in methanol, 293.15 K	0.0141
in methanol, 295.65 K	0.0153
in methanol, 298.15 K	0.0164
in methanol, 300.65 K	0.0178
in methanol, 303.15 K	0.0192
in methanol, 305.65 K	0.0205
in methanol, 308.15 K	0.022
in methanol, 310.65 K	0.0235
in methanol, 313.15 K	0.0252
in methanol, 315.65 K	0.0269
in methanol, 318.15 K	0.0289
in n-butanol, 273.15 K	0.0198
in n-butanol, 275.65 K	0.0211
in n-butanol, 278.15 K	0.0224
in n-butanol, 280.65 K	0.0238
in n-butanol, 283.15 K	0.0252
in n-butanol, 285.65 K	0.0265
in n-butanol, 288.15 K	0.0281
in n-butanol, 290.65 K	0.0299
in n-butanol, 293.15 K	0.0314
in n-butanol, 295.65 K	0.0332
in n-butanol, 298.15 K	0.0349
in n-butanol, 300.65 K	0.0368
in n-butanol, 303.15 K	0.0386
in n-butanol, 305.65 K	0.0405
in n-butanol, 308.15 K	0.0425
in n-butanol, 310.65 K	0.045
in n-butanol, 313.15 K	0.0468
in n-butanol, 315.65 K	0.0489
in n-butanol, 318.15 K	0.0513
in n-propanol, 273.15 K	0.015
in n-propanol, 275.65 K	0.016
in n-propanol, 278.15 K	0.017
in n-propanol, 280.65 K	0.0181
in n-propanol, 283.15 K	0.0194
in n-propanol, 285.65 K	0.0205
in n-propanol, 288.15 K	0.0219
in n-propanol, 290.65 K	0.0232
in n-propanol, 293.15 K	0.0245
in n-propanol, 295.65 K	0.026
in n-propanol, 298.15 K	0.0277
in n-propanol, 300.65 K	0.029
in n-propanol, 303.15 K	0.0309
in n-propanol, 305.65 K	0.0324
in n-propanol, 308.15 K	0.0342
in n-propanol, 310.65 K	0.036
in n-propanol, 313.15 K	0.038
in n-propanol, 315.65 K	0.04
in n-propanol, 318.15 K	0.0421
in toluene, 273.15 K	0.00192
in toluene, 275.65 K	0.00205
in toluene, 278.15 K	0.0022
in toluene, 280.65 K	0.00236
in toluene, 283.15 K	0.00254
in toluene, 285.65 K	0.00272
in toluene, 288.15 K	0.0029
in toluene, 290.65 K	0.0031
in toluene, 293.15 K	0.00333
in toluene, 295.65 K	0.00354
in toluene, 298.15 K	0.00378
in toluene, 300.65 K	0.00405
in toluene, 303.15 K	0.00427
in toluene, 305.65 K	0.00454
in toluene, 308.15 K	0.00482
in toluene, 310.65 K	0.0051
in toluene, 313.15 K	0.00544
in toluene, 315.65 K	0.00572
in toluene, 318.15 K	0.00608

From BigSolDB 2.1
